Among the data in patent US20250163029A1, “PYRIDONE OR PYRIMIDONE DERIVATIVE AND APPLICATION THEREOF” (Medshine Discovery Inc., priority 2022, published 2025) are IC50 and EC50 values, retold here.

One experiment concerns the target T1, SARS-CoV-2 Mpro (Severe acute respiratory syndrome coronavirus 2, UniProt P0DTD1).
T1 construct: Mpro protein was added to the 384-well assay plate; purchased WuXi AppTec
Put plainly: In vitro anti-novel coronavirus Mpro protease activity. In kind it is biochemical. Particulars: 25 nM Mpro protein, 25 μM substrate. The procedure: (§1) The compound was dissolved in DMSO, and diluted in a 3-fold gradient with Echo655 according to the concentration requirements for the assay to 10 concentration points. Duplicate assays were set at each concentration. The diluted solution was added to a 384-well plate. Mpro protein and substrate were diluted with assay buffer (100 mM NaCl, 20 mM Tris-HCl, 1 mM EDTA). Mpro protein was added to the 384-well assay plate, and incubated with the compound for 30 min at room temperature. Then the substrate was added. The assay concentration of Mpro protein was 25 nM, and the assay concentration of substrate was 25 μM. After incubating for 60 minutes in a 30° C. constant temperature incubator, the fluorescence signal value of Ex/Em=340 nm/490 nm was detected by microplate reader. At the same time, the background well containing the substrate and compound but not containing Mpro protein was detected as control.
as §1, with “EDTA), and” for “EDTA).”, “plate,” for “plate, and”
2) Log (agonist) vs. response—variable slope nonlinear fitting analysis was carried out on the inhibition rate data (inhibition rate %) of the compound by using GraphPad Prism software, and the IC50 value of the compound was obtained.

A further experiment concerns SARS-CoV-2 replicon. In words: microbe, parasite or virus in culture. The experiment is classed as cell-based. The conditions noted are these: Severe acute respiratory syndrome coronavirus 2, Huh-7, 24 h.

As usually defined, the IC50 is the concentration needed to halve the response being measured. High values mean weaker potency in that assay, low ones greater potency in that assay. As usually defined, the EC50 is the concentration at which the effect is half-maximal. A higher EC50 goes with a less potent agent. As to `Cn1cnc(Cc2cn(Cc3cc(F)c(F)cc3F)c(Nc3cc4cn(C)nc4cc3Cl)nc2=O)n1` [Compound 4], at SARS-CoV-2 Mpro, 25 nM corresponded to half-maximal inhibition (IC50). The same molecule came in with an EC50 in the experiment with SARS-CoV-2 replicon of 66 nM.

As to `Cn1cnc(Cc2cn(Cc3cc(F)c(F)c(F)c3F)c(Nc3cc4cn(C)nc4cc3Cl)nc2=O)n1` [Compound 7], half-maximal inhibition against SARS-CoV-2 Mpro (IC50) required 62 nM. The molecule further registered an EC50 in the experiment on SARS-CoV-2 replicon of 82 nM.

As to `Cn1cnc(Cc2c(F)n(Cc3cc(F)c(F)cc3F)c(Nc3cc4cn(C)nc4cc3Cl)nc2=O)n1` [Compound 8], on SARS-CoV-2 Mpro, the IC50 was found to be 58 nM. The same molecule had a concentration giving a half-maximal response (EC50) in the experiment on SARS-CoV-2 replicon of 58 nM.
